Results reported in EP1953147A1, “HETEROCYCLIC COMPOUND AND MEDICINAL APPLICATION THEREOF” (priority 2005, dated 2007).
Where a name gives a salt, the structure may show the parent alone.

Test system: ΔG/SEAP/HCV E1E2
Experiment: Effect of test substance on cell infection with HCV pseudotype virus (SEAP reporter assay in HepG2 cells)
Format: cell-based
Conditions: Hepatitis C virus

`COc1cc(OC)cc(-c2nn(-c3cc(NC(=O)CO)ccc3C(F)(F)F)c(=O)c3c2CCC3)c1` [Example 83, N-{3-[4-(3,5-dimethoxy-phenyl)-1-oxo-1,5,6,7-tetrahydro-cyclopenta[d]pyridazin-2-yl]-4-trifluoromethyl-phenyl}-2-hydroxy-acetamide] and `CCNc1ccc(C(F)(F)F)c(-n2nc(-c3cc(OC)cc(OC)c3)c3c(c2=O)CCC3)c1` [Example 67, 4-(3,5-dimethoxy-phenyl)-2-(5-ethylamino-2-trifluoromethyl-phenyl)-2,5,6,7-tetrahydro-cyclopenta[d]pyridazin-1-one] cannot be ordered by IC50: less than 100 nM for the first, less than 100 nM for the second.

First: COc1cc(OC)cc(-c2nn(-c3cc(NCC4CCCC4)ccc3C(F)(F)F)c(=O)c3c2CCC3)c1 [Example 148, 2-[5-(cyclopentylmethyl-amino)-2-trifluoromethylphenyl]-4-(3,5-dimethoxy-phenyl)-2,5,6,7-tetrahydro-cyclopenta[d]pyridazin-1-one]
Second: COc1cc(OC)cc(-c2nn(-c3cc(NCC4CC4)ccc3C(F)(F)F)c(=O)c3c2CCC3)c1 [Example 141, 2-[5-(cyclopropylmethyl-amino)-2-trifluoromethylphenyl]-4-(3,5-dimethoxy-phenyl)-2,5,6,7-tetrahydro-cyclopenta[d]pyridazin-1-one]
The IC50 of the first is higher: 100 to 10000 nM for the first, less than 100 nM for the second.

`Cc1cccc(-c2nn(-c3cc(N4CC[C@H](O)C4)ccc3C(F)(F)F)c(=O)c3c2CCC3)c1` [Example 64, 2-[5-((S)-3-hydroxy-pyrrolidin-1-yl)-2-trifluoromethyl-phenyl]-4-m-tolyl-2,5,6,7-tetrahydro-cyclopenta[d]pyridazin-1-one] and `O=c1c2c(c(-c3cccc(Cl)c3)nn1-c1cc(N3CC[C@H](O)C3)ccc1C(F)(F)F)CCC2` [Example 72, 4-(3-chloro-phenyl)-2-[5-((S)-3-hydroxy-pyrrolidin-1-yl)-2-trifluoromethyl-phenyl]-2,5,6,7-tetrahydro-cyclopenta[d]pyridazin-1-one] cannot be ordered by IC50: less than 100 nM for the first, less than 100 nM for the second.

`COc1cc(OC)cc(-c2nn(-c3cc(N4CC[C@H](O)C4)ccc3C(F)(F)F)c(=O)c3c2CCN3CC(=O)O)c1` [Example 27, {4-(3,5-dimethoxy-phenyl)-6-[5-((S)-3-hydroxy-pyrrolidin-1-yl)-2-trifluoromethyl-phenyl]-7-oxo-2,3,6,7-tetrahydro-pyrrolo[2,3-d]pyridazin-1-yl}-acetic acid] and `CCC(O)CN1CCc2c(-c3cc(OC)cc(OC)c3)nn(-c3cc(N4CC[C@H](O)C4)ccc3C(F)(F)F)c(=O)c21` (stereo partly drawn) [Example 30, 4-(3,5-dimethoxy-phenyl)-1-(2-hydroxy-butyl)-6-[5-((S)-3-hydroxy-pyrrolidin-1-yl)-2-trifluoromethylphenyl]-1,2,3,6-tetrahydro-pyrrolo[2,3-d]pyridazin-7-one] cannot be ordered by IC50: less than 100 nM for the first, less than 100 nM for the second.

`COc1cc(OC)cc(-c2nn(-c3cc(N4CC[C@H](O)C4)ccc3C(F)(F)F)c(=O)c3c2CCN3CC(=O)N2CCN(C(C)=O)CC2)c1` [Example 41, 1-[2-(4-acetyl-piperazin-1-yl)-2-oxo-ethyl]-4-(3,5-dimethoxy-phenyl)-6-[5-((S)-3-hydroxy-pyrrolidin-1-yl)-2-trifluoromethyl-phenyl]-1,2,3,6-tetrahydro-pyrrolo[2,3-d]pyridazin-7-one] and `COc1cc(OC)cc(-c2nn(-c3cc(N4CC[C@@H](O)C4)ccc3C(F)(F)F)c(=O)c3c2CCC3)c1` [Example 21, 4-(3,5-dimethoxy-phenyl)-2-[5-((R)-3-hydroxy-pyrrolidin-1-yl)-2-trifluoromethyl-phenyl]-2,5,6,7-tetrahydro-cyclopenta[d]pyridazin-1-one] cannot be ordered by IC50: less than 100 nM for the first, less than 100 nM for the second.

`COc1cc(OC)cc(-c2nn(-c3cc(NCCN)ccc3C(F)(F)F)c(=O)c3c2CCC3)c1` [Example 119, 2-[5-(2-amino-ethylamino)-2-trifluoromethylphenyl]-4-(3,5-dimethoxy-phenyl)-2,5,6,7-tetrahydro-cyclopenta[d]pyridazin-1-one hydrochloride] and `COc1cc(OC)cc(-c2nn(-c3cc(NCCCN)ccc3C(F)(F)F)c(=O)c3c2CCC3)c1` [Example 127, 2-[5-(3-amino-propylamino)-2-trifluoromethylphenyl]-4-(3,5-dimethoxy-phenyl)-2,5,6,7-tetrahydro-cyclopenta[d]pyridazin-1-one hydrochloride] cannot be ordered by IC50: less than 100 nM for the first, less than 100 nM for the second.

`Cc1cc(-c2cnco2)cc(-c2nn(-c3cc(-c4cccnn4)ccc3C(F)(F)F)c(=O)c3c2CCC3)c1` [Example 3, 4-(3-methyl-5-oxazol-5-yl-phenyl)-2-(5-pyridazin-3-yl-2-trifluoromethyl-phenyl)-2,5,6,7-tetrahydro-cyclopenta[d]pyridazin-1-one] and `COc1cc(OC)cc(-c2nn(-c3cc(OC)ccc3C(F)(F)F)c(=O)c3c2CCC3)c1` [Example 69, 4-(3,5-dimethoxy-phenyl)-2-(5-methoxy-2-trifluoromethyl-phenyl)-2,5,6,7-tetrahydro-cyclopenta[d]pyridazin-1-one] cannot be ordered by IC50: less than 100 nM for the first, less than 100 nM for the second.

First: COc1cc(OC)cc(-c2nn(-c3cc(N4CCC4)ccc3C(F)(F)F)c(=O)c3c2CCC3)c1 [Example 71, 2-(5-azetidin-1-yl-2-trifluoromethyl-phenyl)-4-(3,5-dimethoxy-phenyl)-2,5,6,7-tetrahydro-cyclopenta[d]pyridazin-1-one]
Second: COc1cc(OC)cc(-c2nn(-c3cc(C(=O)O)ccc3C(F)(F)F)c(=O)c3c2CCC3)c1 [Example 1-10, 3-[4-(3,5-dimethoxy-phenyl)-1-oxo-1,5,6,7-tetrahydro-cyclopenta[d]pyridazin-2-yl]-4-trifluoromethyl-benzoic acid]
The IC50 of the first is lower: less than 100 nM for the first, 100 to 10000 nM for the second. The first is the more potent here.

First: O=C(O)c1cccc(-c2nn(-c3cc(N4CC[C@H](O)C4)ccc3C(F)(F)F)c(=O)c3c2CCC3)c1 [Example 79, 3-{3-[5-((S)-3-hydroxy-pyrrolidin-1-yl)-2-trifluoromethyl-phenyl]-4-oxo-4,5,6,7-tetrahydro-3H-cyclopenta[d]pyridazin-1-yl}-benzoic acid]
Second: O=c1c2c(c(-c3cccc(F)c3)nn1-c1cc(N3CC[C@H](O)C3)ccc1C(F)(F)F)CCC2 [Example 65, 4-(3-fluoro-phenyl)-2-[5-((S)-3-hydroxy-pyrrolidin-1-yl)-2-trifluoromethyl-phenyl]-2,5,6,7-tetrahydro-cyclopenta[d]pyridazin-1-one]
The IC50 of the first is higher: 100 to 10000 nM for the first, less than 100 nM for the second. The second is the more potent here.

`COc1cc(OC)cc(-c2nn(-c3cc(NCCNS(C)(=O)=O)ccc3C(F)(F)F)c(=O)c3c2CCC3)c1` [Example 137, N-(2-{3-[4-(3,5-dimethoxy-phenyl)-1-oxo-1,5,6,7-tetrahydro-cyclopenta[d]pyridazin-2-yl]-4-trifluoromethyl-phenylamino}-ethyl)-methanesulfonamide] and `COc1cc(OC)cc(-c2nn(-c3cc(CO)ccc3C(F)(F)F)c(=O)c3c2CCC3)c1` [Example 149, 4-(3,5-dimethoxy-phenyl)-2-(5-hydroxymethyl-2-trifluoromethyl-phenyl)-2,5,6,7-tetrahydro-cyclopenta[d]pyridazin-1-one] cannot be ordered by IC50: less than 100 nM for the first, less than 100 nM for the second.

First: O=c1c2c(c(-c3ccccc3)nn1-c1cc(N3CC[C@H](O)C3)ccc1C(F)(F)F)CCC2 [Example 66, 2-[5-((S)-3-hydroxy-pyrrolidin-1-yl)-2-trifluoromethyl-phenyl]-4-phenyl-2,5,6,7-tetrahydro-cyclopenta[d]pyridazin-1-one]
Second: O=c1c2c(c(-c3ccncc3)nn1-c1cc(N3CC[C@H](O)C3)ccc1C(F)(F)F)CCC2 [Example 95, 2-[5-((S)-3-hydroxy-pyrrolidin-1-yl)-2-trifluoromethyl-phenyl]-4-pyridin-4-yl-2,5,6,7-tetrahydro-cyclopenta[d]pyridazin-1-one]
The IC50 of the first is lower: less than 100 nM for the first, 100 to 10000 nM for the second. The first is the more potent here.

Compared with `COc1cc(OC)cc(-c2nn(-c3cc(N4CC[C@@H](O)C4)ccc3C(F)(F)F)c(=O)c3c2CCN3)c1` [Example 24, 4-(3,5-dimethoxy-phenyl)-6-[5-((R)-3-hydroxy-pyrrolidin-1-yl)-2-trifluoromethyl-phenyl]-1,2,3,6-tetrahydro-pyrrolo[2,3-d]pyridazin-7-one], `COc1cc(OC)cc(-c2nn(-c3cc(F)ccc3C(F)(F)F)c(=O)c3c2CCN3)c1` [Example 50, 4-(3,5-dimethoxy-phenyl)-6-(5-fluoro-2-trifluoromethyl-phenyl)-1,2,3,6-tetrahydro-pyrrolo[2,3-d]pyridazin-7-one] is higher in IC50: less than 100 nM for the first, 100 to 10000 nM for the second. The first is the more potent here.

`O=c1c2c(c(-c3ccccn3)nn1-c1cc(N3CC[C@H](O)C3)ccc1C(F)(F)F)CCC2` [Example 110, 2-[5-((S)-3-hydroxy-pyrrolidin-1-yl)-2-trifluoromethyl-phenyl]-4-pyridin-2-yl-2,5,6,7-tetrahydro-cyclopenta[d]pyridazin-1-one] and `O=c1c2c(c(-c3ccsc3)nn1-c1cc(N3CC[C@H](O)C3)ccc1C(F)(F)F)CCC2` [Example 158, 2-[5-((S)-3-hydroxy-pyrrolidin-1-yl)-2-trifluoromethyl-phenyl]-4-thiophen-3-yl-2,5,6,7-tetrahydro-cyclopenta[d]pyridazin-1-one] fall in the same range of IC50: 100 to 10000 nM for the first, 100 to 10000 nM for the second.

`COc1cc(OC)cc(-c2nn(-c3cc(C#CCO)ccc3C(F)(F)F)c(=O)c3c2CCC3)c1` [Example 120, 4-(3,5-dimethoxy-phenyl)-2-[5-(3-hydroxy-prop-1-ynyl)-2-trifluoromethyl-phenyl]-2,5,6,7-tetrahydro-cyclopenta[d]pyridazin-1-one] and `COc1cc(OC)cc(-c2nn(-c3cc(NC4CCCC4)ccc3C(F)(F)F)c(=O)c3c2CCC3)c1` [Example 146, 2-(5-cyclopentylamino-2-trifluoromethyl-phenyl)-4-(3,5-dimethoxy-phenyl)-2,5,6,7-tetrahydro-cyclopenta[d]pyridazin-1-one] cannot be ordered by IC50: less than 100 nM for the first, less than 100 nM for the second.

`COc1cc(O)cc(-c2nn(-c3cc(N4CC(CO)C4)ccc3C(F)(F)F)c(=O)c3c2CCN3CCO)c1` [Example 1-44, 1-(2-hydroxy-ethyl)-4-(3-hydroxy-5-methoxyphenyl)-6-[5-(3-hydroxymethyl-azetidin-1-yl)-2-trifluoromethyl-phenyl]-1,2,3,6-tetrahydro-pyrrolo[2,3-d]pyridazin-7-one] and `O=c1c2c(c(-c3cccc(C(F)(F)F)c3)nn1-c1cc(N3CC[C@H](O)C3)ccc1C(F)(F)F)CCC2` [Example 74, 2-[5-((S)-3-hydroxy-pyrrolidin-1-yl)-2-trifluoromethyl-phenyl]-4-(3-trifluoromethyl-phenyl)-2,5,6,7-tetrahydro-cyclopenta[d]pyridazin-1-one] cannot be ordered by IC50: less than 100 nM for the first, less than 100 nM for the second.
